Test results from patent US8889411B2, “Modulation of stem and progenitor cell differentiation, assays, and uses thereof” (Anthrogenesis Corporation, priority 2002, dated 2014).

Tests used:
[1] = system: Purified human cord blood CD34+ cells; assay: Monocyte production: CD34/CD14 staining of cord blood CD34+ cells cultured 14 days with cytokines; format: cell-based
Method: Purified human cord blood CD34+ cells (greater than 90% CD34+) were cultured in 20% FCS IMDM medium supplemented with cytokines (IL3, IL6, G-CSF, KL and Epo) at 4×10^4 cells/ml for 14 days at 37° C. in a humidified 5% CO2 incubator. The experimental groups consisted of a group in which (i) no DMSO or chemical compounds were added (“None”), (ii) DMSO only, (iii) Thalidomide dissolved in DMSO, (iv) ACTIMID™ dissolved in DMSO, and (v) REVIMID™ dissolved in DMSO. Aliquots of cells were harvested and stained with CD34-PE conjugated monoclonal antibody and CD14-FITC conjugated monoclonal antibody.

[2] = system: cells derived from CD34+ progenitor cells; assay: Phagocytosis: FITC-dextran uptake (mannose receptor-mediated endocytosis); format: cell-based, human; conditions: compared to DMSO control
Method: Phagocytosis: The endocytic activity of the cells was analyzed by measuring FITC-dextran uptake. Cells were incubated with 1 mg/ml dextran-FITC (Sigma) in complete medium at 37° C. for 1 hour and 4° C. for 1 hour as a negative control. Results presented are representative of two independent experiments.

[3] = system: Cord blood CD34+ hematopoietic progenitor cells; assay: Colony forming unit (CFU) generation from cord blood CD34+ cells; format: cell-based, human; conditions: IL-3, G-CSF, kit-ligand, vs DMSO
Method: FIG. 1. Bar graph indicating results of culturing cord blood CD34+ cells in the presence of Thalidomide (THD), ACTIMID™, and REVIMID™ at concentrations of 1 μg/ml and 10 μg/ml. An equal volume of DMSO was used as a negative control. Hematopoietic colonies of burst forming units-erythroid (BFU-E), colony forming units-erythroid (CFU-E), colony forming units-granulocyte macrophage (CFU-GM) and total numbers of colonies (CFU-Total) were scored under the light microscope at day 14 of culture. Y-axis: numbers of colonies. See Section 6.1 for details.
Cord blood CD34+ hematopoietic progenitor cells were plated in 96 well cultivation dishes at a density of 1000 cells per well in IMDM supplemented with 20% fetal calf serum and cytokines (IL-3, G-CSF and kit-ligand (R&D Systems, Inc.) The cells were exposed to Thalidomide (Thal), ACTIMID™ and REVIMID™, or DMSO (a control compound), and allowed to culture for 6 days. […] After culturing, cells were stained and sorted with a fluorescence activated. cell sorter (FACS). 400 μL of stained cells were harvested and diluted to 1.0 ml with 1% fetal calf serum in phosphate buffered saline (PBS). Cells were counted to determine the effect of modulation of stem cell differentiation.

[4] = system: CD1a+CD14− and CD1a−CD14+ cells (DC progenitors); assay: Detection of apoptosis (Annexin V-FITC / propidium iodide) in isolated DC progenitors; format: cell-based, human; conditions: 1 μM; 2 days; GM-CSF and TNF-α
Method: Detection of apoptosis: Phosphatidyl serine exposure was determined using Annexin V-FITC staining in combination with propidium iodide (BD Pharmingen apoptosis detection kit I) following manufacturer instruction.
Block in DC generation is not mediated by specific killing of the DC progenitors: To determine if the decrease in DC progenitors was mediated by specific killing, CD34^+ progenitor cells were cultured for a period of 6 days in the presence of SCF, Flt-3L, GM-CSF and TNF-α. At day 6, CD1a^+CD14^− and […] cells (DC progenitors) were isolated by magnetic cell sorting (Miltenyi). Purified populations were cultured for an additional 2 days in the presence of GM-CSF and TNF-α with or without ACTIMID™ (1 μM).

Nc1cccc2c1C(=O)N(C1CCC(=O)NC1=O)C2=O (stereo not drawn) [ACTIMID™, 4-(Amino)-2-(2,6-dioxo(3-piperidyl))-isoindoline-1,3-dione]
percentage of monocyte lineage cells ([1]; 5 μg/ml, compared to control, FIG. 13): increase
percentage of CD34+ cells of the total cells ([1]; 14 days, IL3, IL6, G-CSF, KL and Epo, compound dissolved in DMSO): 18.7%
production of monocytes (CD14+ cells) ([1]; 14 days, relative to DMSO-treated group): overcome
phagocytic capacity at day 12 ([2]; compound from day 1 to day 12): strong decrease
phagocytic capacity at day 12 ([2]; compound from day 6 to day 12): comparable
generation of erythropoietic colonies (BFU-E and CFU-E) [3]: suppress
generation of leukocyte and platelet forming colonies (CFU-GM) [3]: augmenting
total colony forming unit (CFU-Total) production [3]: enhancing
level of annexin V+-PI− (early apoptosis) and annexin V+-PI+ (late apoptosis) populations [4]: no significant increase
